The values that follow come from US11084800B2 (Achillion Pharmaceuticals, Inc., priority 2017, dated 2021).

pIC50: −log10 of the molar value.

Human Factor D, sequence (P00746 26-253): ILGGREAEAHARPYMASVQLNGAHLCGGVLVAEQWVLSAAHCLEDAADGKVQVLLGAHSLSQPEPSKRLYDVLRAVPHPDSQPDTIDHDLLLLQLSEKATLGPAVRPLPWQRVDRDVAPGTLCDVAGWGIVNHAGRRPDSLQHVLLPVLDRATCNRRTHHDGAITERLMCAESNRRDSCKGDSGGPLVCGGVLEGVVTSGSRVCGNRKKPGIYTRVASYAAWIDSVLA

One assay addresses Human Factor D (Homo sapiens (Human), UniProt P00746). The experiment in a line: Human Factor D Assay. It is filed as biochemical. The conditions noted are these: Factor D inhibition, assay of Example 10; read-out: IC5 (Stars). An outline of the steps:
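Serum-purified Factor D (80 nM final) preincubated 5 min at room temperature with compound in 50 mM Tris, 1 M NaCl, pH 7.5. Z-L-Lys-SBz and DTNB added at 100 μM each; A405 followed every 30 s for 30 min. IC50 from nonlinear regression of rates versus concentration.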
Regarding `CC(=O)c1nn(CC(=O)N2[C@H](C(=O)Nc3cccn(-c4ccccn4)c3=O)C[C@@]3(C)C[C@@H]23)c2c(C)cc(-c3cnc(C)nc3)cc12` [Compound 460, (1R,3S,5R)-2-{2-[3-Acetyl-7-methyl-5-(2-methylpyrimidin-5-yl)indazol-1-yl]acetyl}-5-methyl-N-{2-oxo-[1,2′-bipyridine]-3-yl}-2-azabicyclo[3.1.0]hexane-3-carboxamide], the pIC50 is more than 6.00. Same read-out and setting: the same measure for `CC(=O)c1nn(CC(=O)N2[C@H](C(=O)Nc3cc(Br)ncc3F)C[C@@]3(C)C[C@@H]23)c2cnc(-c3cnc(C)nc3)cc12` [Compound 461, (1R,3S,5R)-2-(2-(3-acetyl-5-(2-methylpyrimidin-5-yl)-1H-pyrazolo[3,4-c]pyridin-1-yl)acetyl)-N-(2-bromo-5-fluoropyridin-4-yl)-5-methyl-2-azabicyclo[3.1.0]hexane-3-carboxamide]: 5.00 to 6.00; for `CC(=O)c1nn(CC(=O)N2[C@H](C(=O)N[C@H](Cc3ccccc3)C(=O)O)C[C@@]3(C)C[C@@H]23)c2c(C)cc(-c3cnc(C)nc3)cc12` [Compound 462, ((1R,3S,5R)-2-(2-(3-acetyl-7-methyl-5-(2-methylpyrimidin-5-yl)-1H-indazol-1-yl)acetyl)-5-methyl-2-azabicyclo[3.1.0]hexane-3-carbonyl)-D-phenylalanine]: 5.00 to 6.00; for `CC(=O)c1nn(CC(=O)N2[C@H](C(=O)N[C@H](CC(C)C)C(=O)O)C[C@@]3(C)C[C@@H]23)c2c(C)cc(-c3cnc(C)nc3)cc12` [Compound 464, ((1R,3S,5R)-2-(2-(3-acetyl-7-methyl-5-(2-methylpyrimidin-5-yl)-1H-indazol-1-yl)acetyl)-5-methyl-2-azabicyclo[3.1.0]hexane-3-carbonyl)-D-leucine]: 5.00 to 6.00. Take `Cc1ncc(-c2ccc3c(c2)c(C(=O)C(F)(F)F)cn3CC(=O)N2[C@H](C(=O)Nc3nc(Br)ccc3C)C[C@@]3(C)C[C@@H]23)cn1` [Compound 465, (1R,3S,5R)-N-(6-bromo-3-methylpyridin-2-yl)-5-methyl-2-(2-(5-(2-methylpyrimidin-5-yl)-3-(2,2,2-trifluoroacetyl)-1H-indol-1-yl)acetyl)-2-azabicyclo[3.1.0]hexane-3-carboxamide]: the pIC50 was more than 6.00. As for `CC(=O)c1nn(CC(=O)N2[C@H](C(=O)Nc3nc(Br)ccc3C)C[C@@]3(C)C[C@@H]23)c2cc(F)c(-c3cnc(C)nc3)cc12` [Compound 466, (1R,3S,5R)-2-(2-(3-acetyl-6-fluoro-5-(2-methylpyrimidin-5-yl)-1H-indazol-1-yl)acetyl)-N-(6-bromo-3-methylpyridin-2-yl)-5-methyl-2-azabicyclo[3.1.0]hexane-3-carboxamide], the pIC50 is more than 6.00. The same measure, in the same setting: under `COC(=O)c1nn(CC(=O)N2[C@H](C(=O)Nc3nc(Br)ccc3C)C[C@@]3(C)C[C@@H]23)c2ccc(-c3cnc(C)nc3)cc12` [Compound 467, Methyl 1-{2-[(1R,3S,5R)-3-[(6-bromo-3-methylpyridin-2-yl)carbamoyl]-5-methyl-2-azabicyclo[3.1.0]hexan-2-yl]-2-oxoethyl}-5-(2-methylpyrimidin-5-yl)indazole-3-carboxylate] stands more than 6.00; under `Cc1ncc(-c2ccc3c(c2)c(C(=O)O)nn3CC(=O)N2[C@H](C(=O)Nc3nc(Br)ccc3C)C[C@@]3(C)C[C@@H]23)cn1` [Compound 469, 1-{2-[(1R,3S,5R)-3-[(6-Bromo-3-methylpyridin-2-yl)carbamoyl]-5-methyl-2-azabicyclo[3.1.0]hexan-2-yl]-2-oxoethyl}-5-(2-methylpyrimidin-5-yl)indazole-3-carboxylic Acid], less than 5.00; under `Cc1ncc(-c2cc3c(C(=O)C(F)(F)F)cn(CC(=O)N4[C@H](C(=O)Nc5nc(Br)ccc5C)C[C@@]5(C)C[C@@H]45)c3cn2)cn1` [Compound 470, (1R,3S,5R)-N-(6-bromo-3-methylpyridin-2-yl)-5-methyl-2-(2-(5-(2-methylpyrimidin-5-yl)-3-(2,2,2-trifluoroacetyl)-1H-pyrrolo[2,3-c]pyridin-1-yl)acetyl)-2-azabicyclo[3.1.0]hexane-3-carboxamide], more than 6.00. On the same count and under the same terms, the same measure for `CC(=O)c1cn(CC(=O)N2[C@H](C(=O)Nc3nc(Br)c(F)cc3C)C[C@@]3(C)C[C@@H]23)c2c(C)nc(-c3cnc(C)nc3)cc12` [Compound 471]: more than 6.00; for `CC(=O)c1cn(CC(=O)N2[C@H](C(=O)Nc3nc(Br)ccc3C)C[C@@]3(C)C[C@@H]23)c2c(C)nc(-c3cnc(C)nc3)cc12` [Compound 472, (1R,3S,5R)-2-(2-(3-Acetyl-7-methyl-5-(2-methylpyrimidin-5-yl)-1H-pyrrolo[2,3-c]pyridin-1-yl)acetyl)-N-(6-bromo-3-methylpyridin-2-yl)-5-methyl-2-azabicyclo[3.1.0]hexane-3-carboxamide]: more than 6.00.

Take `CCNC(=O)c1nn(CC(=O)N2[C@H](C(=O)Nc3nc(Br)ccc3C)C[C@@]3(C)C[C@@H]23)c2ccc(-c3cnc(C)nc3)cc12` [Compound 474, 1-{2-[(1R,3S,5R)-3-[(6-Bromo-3-methylpyridin-2-yl)carbamoyl]-5-methyl-2-azabicyclo[3.1.0]hexan-2-yl]-2-oxoethyl}-N-ethyl-5-(2-methylpyrimidin-5-yl)indazole-3-carboxamide]: the pIC50 was more than 6.00. On the same count and under the same terms, under `CC(=O)c1cn(CC(=O)N2[C@H](C(=O)Nc3nc(Br)ccc3C)C[C@@]3(C)C[C@@H]23)c2cc(F)c(-c3cnc(C)nc3)cc12` [Compound 482, (1R,3S,5R)-2-(2-(3-acetyl-6-fluoro-5-(2-methylpyrimidin-5-yl)-1H-indol-1-yl)acetyl)-N-(6-bromo-3-methylpyridin-2-yl)-5-methyl-2-azabicyclo[3.1.0]hexane-3-carboxamide] stands more than 6.00; under `CC(=O)c1c(C)n(CC(=O)N2[C@H](C(=O)Nc3nc(Br)ccc3C)C[C@@]3(C)C[C@@H]23)c2ccc(-c3cnc(C)nc3)cc12` [Compound 483, (1R,3S,5R)-2-(2-(3-acetyl-2-methyl-5-(2-methylpyrimidin-5-yl)-1H-indol-1-yl)acetyl)-N-(6-bromo-3-methylpyridin-2-yl)-5-methyl-2-azabicyclo[3.1.0]hexane-3-carboxamide], more than 6.00; under `CC(=O)c1nn(CC(=O)N2[C@H](C(=O)Nc3nc(Br)c(F)cc3C)C[C@@]3(Cc4nnc(C)o4)C[C@@H]23)c2c(C)cc(-c3cnc(C)nc3)cc12` [Compound 484, (1R,3S,5R)-2-(2-(3-acetyl-7-methyl-5-(2-methylpyrimidin-5-yl)-1H-indazol-1-yl)acetyl)-N-(6-bromo-5-fluoro-3-methylpyridin-2-yl)-5-((5-methyl-1,3,4-oxadiazol-2-yl)methyl)-2-azabicyclo[3.1.0]hexane-3-carboxamide], more than 6.00. As for `CC(=O)c1nn(CC(=O)N2[C@H](C(=O)Nc3nc(Br)c(F)cc3C)C[C@@]3(Cc4nnc(C)o4)C[C@@H]23)c2c(C)nc(-c3cnc(C)nc3)cc12` [Compound 485, (1R,3S,5R)-2-(2-(3-acetyl-7-methyl-5-(2-methylpyrimidin-5-yl)-1H-pyrazolo[3,4-c]pyridin-1-yl)acetyl)-N-(6-bromo-5-fluoro-3-methylpyridin-2-yl)-5-((5-methyl-1,3,4-oxadiazol-2-yl)methyl)-2-azabicyclo[3.1.0]hexane-3-carboxamide], the pIC50 is more than 6.00. On the same count and under the same terms, the same measure for `CC(=O)c1nn(CC(=O)N2[C@H](C(=O)Nc3nc(Br)ccc3Cl)C[C@@]3(Cc4nnc(C)o4)C[C@@H]23)c2c(C)cc(-c3cnc(C)nc3)cc12` [Compound 486, (1R,3S,5R)-2-(2-(3-acetyl-7-methyl-5-(2-methylpyrimidin-5-yl)-1H-indazol-1-yl)acetyl)-N-(6-bromo-3-chloropyridin-2-yl)-5-((5-methyl-1,3,4-oxadiazol-2-yl)methyl)-2-azabicyclo[3.1.0]hexane-3-carboxamide]: more than 6.00; for `CCCNC(=O)c1nn(CC(=O)N2[C@H](C(=O)NCCC)C[C@@]3(C)C[C@@H]23)c2ccc(-c3cnc(C)nc3)cc12` [Compound 487, 1-(2-((1R,3S,5R)-5-methyl-3-(propylcarbamoyl)-2-azabicyclo[3.1.0]hexan-2-yl)-2-oxoethyl)-5-(2-methylpyrimidin-5-yl)-N-propyl-1H-indazole-3-carboxamide]: 5.00 to 6.00.

The same assay, now with this note: Table 8; Factor D 80 nM, substrate Z-L-Lys-SBz; read-out: IC50.
As for `CCCNC(=O)c1nn(CC(=O)N2[C@H](C(=O)Nc3nc(Br)ccc3C)C[C@@]3(C)C[C@@H]23)c2ccc(-c3cnc(C)nc3)cc12` [Compound 475], the pIC50 is more than 6.00. On the same count and under the same terms, under `CCCCNC(=O)c1nn(CC(=O)N2[C@H](C(=O)Nc3nc(Br)ccc3C)C[C@@]3(C)C[C@@H]23)c2ccc(-c3cnc(C)nc3)cc12` [Compound 476] stands more than 6.00; under `CCCCCNC(=O)c1nn(CC(=O)N2[C@H](C(=O)Nc3nc(Br)ccc3C)C[C@@]3(C)C[C@@H]23)c2ccc(-c3cnc(C)nc3)cc12` [Compound 477, 1-(2-((1R,3S,5R)-3-((6-bromo-3-methylpyridin-2-yl)carbamoyl)-5-methyl-2-azabicyclo[3.1.0]hexan-2-yl)-2-oxoethyl)-5-(2-methylpyrimidin-5-yl)-N-pentyl-1H-indazole-3-carboxamide], less than 5.00. On the same count and under the same terms, the same measure for `Cc1ncc(-c2ccc3c(c2)c(C(=O)NCC2CC2)nn3CC(=O)N2[C@H](C(=O)Nc3nc(Br)ccc3C)C[C@@]3(C)C[C@@H]23)cn1` [Compound 478, 1-(2-((1R,3S,5R)-3-((6-bromo-3-methylpyridin-2-yl)carbamoyl)-5-methyl-2-azabicyclo[3.1.0]hexan-2-yl)-2-oxoethyl)-N-(cyclopropylmethyl)-5-(2-methylpyrimidin-5-yl)-1H-indazole-3-carboxamide]: more than 6.00; for `Cc1ncc(-c2ccc3c(c2)c(C(=O)NCC2CCC2)nn3CC(=O)N2[C@H](C(=O)Nc3nc(Br)ccc3C)C[C@@]3(C)C[C@@H]23)cn1` [Compound 479]: 5.00 to 6.00; for `Cc1ncc(-c2ccc3c(c2)c(C(=O)NCC(C)(C)C)nn3CC(=O)N2[C@H](C(=O)Nc3nc(Br)ccc3C)C[C@@]3(C)C[C@@H]23)cn1` [Compound 480]: less than 5.00.
